What all share (assay): relative viability (nuclei count vs DMSO), 5 days (fraction); higher = more cells survive
Compound in the experiment “BAY61-3606 + Dasatinib”: COC1=C(C=C(C=C1)C2=CC3=NC=CN3C(=N2)NC4=C(C=CC=N4)C(=O)N)OC [BAY61-3606] + Cc1nc(Nc2ncc(C(=O)Nc3c(C)cccc3Cl)s2)cc(N2CCN(CCO)CC2)n1 [Dasatinib] (partner 0.075 µM)
The essentials:
(§1)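 After 5 days of treatment, lung cancer cells in 1536-well plates were fixed and stained in a single step (final 0.05% Triton X-100, 1% formaldehyde, 1 ug/ml Hoechst) and their nuclei counted on 4× images. Treatment had been applied by pin tool the day after seeding as one drug alone or as a fixed anchor-drug dose with five library-drug doses (not always all listed) in √10 steps. Relative viability is the nuclei count of treated wells divided by that of vehicle wells, and values are medians of duplicate plates.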

Compound in the experiment “Doxorubicin + Luminespib”: COc1cccc2c1C(=O)c1c(O)c3c(c(O)c1C2=O)C[C@@](O)(C(=O)CO)C[C@@H]3O[C@H]1C[C@H](N)[C@H](O)[C@H](C)O1 [Doxorubicin] + CCNC(=O)c1noc(-c2cc(C(C)C)c(O)cc2O)c1-c1ccc(CN2CCOCC2)cc1 [Luminespib] (partner 0.01 µM)
The essentials:
as §1

Compound in the experiment “BAY61-3606 + Crizotinib”: COC1=C(C=C(C=C1)C2=CC3=NC=CN3C(=N2)NC4=C(C=CC=N4)C(=O)N)OC [BAY61-3606] + C[C@@H](Oc1cc(-c2cnn(C3CCNCC3)c2)cnc1N)c1c(Cl)ccc(F)c1Cl [Crizotinib] (partner 1 µM)
The essentials: as §1

Compound in the experiment “BAY61-3606 + Pemetrexed”: COC1=C(C=C(C=C1)C2=CC3=NC=CN3C(=N2)NC4=C(C=CC=N4)C(=O)N)OC [BAY61-3606] + Nc1nc2[nH]cc(CCc3ccc(C(=O)N[C@@H](CCC(=O)O)C(=O)O)cc3)c2c(=O)[nH]1 [Pemetrexed] (partner 0.2 µM)
The essentials:
as §1

In the case of UMC-11, the relative viability with BAY61-3606 + Dasatinib (first compound 0.02 µM) was found to be 0.464; with BAY61-3606 + Dasatinib (first compound 0.06325 µM), 0.587; with BAY61-3606 + Dasatinib (first compound 0.2 µM), 0.568; with BAY61-3606 + Dasatinib (first compound 0.6325 µM), 0.606; with BAY61-3606 + Dasatinib (first compound 2 µM), 0.524; in the experiment with Doxorubicin + Luminespib (first compound 0.001 µM) it was 0.998. Also, the relative viability was 1.12 with Doxorubicin + Luminespib (first compound 0.003162 µM); 0.943 in the experiment with Doxorubicin + Luminespib (first compound 0.01 µM); 0.642 with Doxorubicin + Luminespib (first compound 0.03162 µM); 0.601 with Doxorubicin + Luminespib (first compound 0.1 µM); 0.664 with BAY61-3606 + Crizotinib (first compound 0.02 µM); 0.613 with BAY61-3606 + Crizotinib (first compound 0.06325 µM). Further, the relative viability in the experiment with BAY61-3606 + Crizotinib (first compound 0.2 µM) was 0.503; with BAY61-3606 + Crizotinib (first compound 0.6325 µM) it was 0.762; with BAY61-3606 + Crizotinib (first compound 2 µM), 0.509; in the experiment with BAY61-3606 + Pemetrexed (first compound 0.02 µM), 0.813; with BAY61-3606 + Pemetrexed (first compound 0.06325 µM), 0.795; with BAY61-3606 + Pemetrexed (first compound 0.2 µM), 0.789. The relative viability in the experiment with BAY61-3606 + Pemetrexed (first compound 0.6325 µM) was determined as 0.781; in the experiment with BAY61-3606 + Pemetrexed (first compound 2 µM), 0.612.

The values are drawn from the supplement of paper PMC10307832.
